Test results published in patent US11492341B2, “ACLY inhibitors and uses thereof” (Nimbus Artemis, Inc., priority 2018, dated 2022).

Target: ACL (Homo sapiens (Human), UniProt P53396)
Assay: ADP-Glo Assay
Format: biochemical
Conditions: 3 nM ACL, 15 μM ATP, 3 μM CoA, 300 μM Citrate
Procedure: Example 28. ADP-Glo Assay
Compounds of the present invention were evaluated in an ADP-GLO assay as follows: a) Dilute cpd 1:3 in succession in DMSO by hand for each cpds for 12 pts b) Add 0.1 μL diluted cpd solution to assay plate, each dose with 2 replicates c) Centrifuge 1000 RPM for 1 min d) Add 5 μL ACL working solution to 384-well assay plate, centrifuge 1000 RPM for 1 min e) Incubate at 25° C. for 15 min f) Add 5 μL substrate working solution to initiate reaction g) Final ACL reaction concentrations: 3 nM ACL, 15 μM ATP, 3 μM CoA, 300 μM Citrate, 0.01% Brij35, 4 mM DTT, 1% DMSO; h) Reference final conc: 30 uM starting Conc, 3× dilution, 11+0 points. Test cpd conc: 30/100 uM starting Conc, 3× dilution, 11+0 points. i) Incubate at 25° C. for 60 min j) Add 10 μL ADP Glo reagent, centrifuge 1000 RPM for 1 min k) Incubate at 25° C. for 40 min l) Add 20 μL kinase detection reagent, centrifuge 1000 RPM for 1 min m) Incubate at 25° C. for 40 min n) Read on Envision for US LUM as RLU

Sequence of ACL (P53396 whole entry, species assumed): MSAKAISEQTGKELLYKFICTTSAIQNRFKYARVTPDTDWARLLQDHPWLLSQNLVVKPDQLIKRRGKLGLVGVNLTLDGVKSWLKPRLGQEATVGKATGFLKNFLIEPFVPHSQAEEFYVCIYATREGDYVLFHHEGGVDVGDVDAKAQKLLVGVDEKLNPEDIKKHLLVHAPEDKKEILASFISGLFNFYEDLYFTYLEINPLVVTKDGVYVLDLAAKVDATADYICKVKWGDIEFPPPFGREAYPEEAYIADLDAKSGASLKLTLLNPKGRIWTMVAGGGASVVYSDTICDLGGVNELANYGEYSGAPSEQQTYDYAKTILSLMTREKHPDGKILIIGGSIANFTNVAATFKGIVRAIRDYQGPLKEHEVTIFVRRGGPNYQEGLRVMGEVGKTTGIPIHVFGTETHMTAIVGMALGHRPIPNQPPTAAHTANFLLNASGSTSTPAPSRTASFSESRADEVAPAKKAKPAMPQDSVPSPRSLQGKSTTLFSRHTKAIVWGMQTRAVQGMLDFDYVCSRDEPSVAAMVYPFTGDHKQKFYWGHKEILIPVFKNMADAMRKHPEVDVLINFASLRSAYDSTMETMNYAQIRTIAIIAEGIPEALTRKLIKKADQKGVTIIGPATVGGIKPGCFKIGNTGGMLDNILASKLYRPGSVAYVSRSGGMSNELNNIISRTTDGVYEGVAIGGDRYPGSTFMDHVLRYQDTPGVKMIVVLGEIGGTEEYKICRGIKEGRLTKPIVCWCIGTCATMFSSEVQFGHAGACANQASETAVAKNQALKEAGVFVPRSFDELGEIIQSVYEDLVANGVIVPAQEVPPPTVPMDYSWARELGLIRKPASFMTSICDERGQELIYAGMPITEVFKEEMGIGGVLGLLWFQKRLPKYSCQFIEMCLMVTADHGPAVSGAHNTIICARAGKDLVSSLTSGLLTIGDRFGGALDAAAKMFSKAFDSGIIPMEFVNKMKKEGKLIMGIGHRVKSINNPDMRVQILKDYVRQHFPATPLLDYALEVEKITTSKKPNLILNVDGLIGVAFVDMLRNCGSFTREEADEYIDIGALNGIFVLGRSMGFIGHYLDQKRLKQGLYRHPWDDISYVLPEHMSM

SMILES | IC50 [µM]
COc1ccc2c(c1)CCN2S(=O)(=O)c1cc(Cl)cc(Cl)c1O [I-17] | 0.5 to 20
COc1ccc(C2CCN(S(=O)(=O)c3cc(Cl)cc(Cl)c3O)C2)cc1 (stereo not shown) [I-11] | 0.5 to 20
COc1c(Cl)cc(Br)cc1S(=O)(=O)n1c(-c2ccccc2)cc2cc(Cl)ccc21 [I-107, 1-((5-bromo-3-chloro-2-methoxyphenyl)sulfonyl)-5-chloro-2-phenyl-1H-indole] | ≥ 20
O=C(O)c1ccc(-c2cc3cc(Cl)ccc3n2S(=O)(=O)c2cc(Br)cc(Cl)c2O)cc1 [I-45, 4-(1-((5-bromo-3-chloro-2-hydroxyphenyl)sulfonyl)-5-chloro-1H-indol-2-yl)benzoic acid] | 0.5 to 20
O=S(=O)(c1cccc(Cl)c1O)n1c(-c2cncnc2)cc2cc(Cl)ccc21 [I-94] | 0.5 to 20
N#Cc1ccc2c(c1)cc(-c1cncs1)n2S(=O)(=O)c1cc(F)cc(F)c1O [I-85] | 0.5 to 20
COC(=O)c1c(-c2ccccc2)c2cc(Cl)ccc2n1S(=O)(=O)c1cc(Cl)cc(Cl)c1 [I-120] | ≥ 20
Cn1cc(-c2cc3cc(C#N)ccc3n2S(=O)(=O)c2cc(F)cc(F)c2O)cn1 [I-118] | ≥ 20
Cc1c(-c2ccccc2)c2cc(Cl)ccc2n1S(=O)(=O)c1cc(Br)cc(Cl)c1O [I-46] | 0.5 to 20
O=C(c1cn(S(=O)(=O)c2cc(Br)cc(Cl)c2O)c2ccc(Cl)cc12)N1CCC1 [I-163] | 0.5 to 20
Cc1cc2cc(Cl)c(O)cc2n1S(=O)(=O)c1cc(Br)cc(Cl)c1O [I-158] | 0.5 to 20
CN(C)C(=O)c1ccc2c(c1)cc(-c1ccccc1)n2S(=O)(=O)c1cc(Br)cc(Cl)c1O [I-56] | 0.5 to 20
COC(=O)c1ccc2c(c1)cc(-c1ccccc1)n2S(=O)(=O)c1cc(Br)cc(Cl)c1O [I-53] | 0.5 to 20
O=S(=O)(c1cc(F)cc(F)c1O)n1c(-c2cccnc2)cc2cc(Cl)ccc21 [I-91] | 0.5 to 20
O=C(c1cc2cc(Cl)ccc2n1S(=O)(=O)c1cc(Br)cc(Cl)c1O)N1CCC1 [I-162] | 0.5 to 20
C[C@@H]1CN(S(=O)(=O)c2cc(Cl)cc(Cl)c2O)C[C@H](C)O1 [I-14] | 0.5 to 20
O=C(O)c1cc(Br)cc(S(=O)(=O)n2c(-c3ccccc3)cc3cc(Cl)ccc32)c1O [I-89] | 0.5 to 20
O=S(=O)(c1cc(F)cc(F)c1O)n1c(-c2cncnc2)cc2cc(Cl)ccc21 [I-90] | 0.5 to 20
O=S(=O)(c1cc(F)ccc1O)n1c(-c2ccccc2)cc2cc(Cl)ccc21 [I-76] | 0.5 to 20
O=S(=O)(c1cc(Cl)cc(Cl)c1O)N1CCC1c1ccccc1F (stereo not shown) [I-12] | 0.5 to 20
O=S(=O)(c1cc(Cl)cc(Cl)c1O)n1c(-c2cccc(OC(F)(F)F)c2)cc2cc(Cl)ccc21 [I-54] | 0.5 to 20
COC(=O)c1cc2c(cc1Cl)cc(C)n2S(=O)(=O)c1cc(Br)cc(Cl)c1O [I-148] | 0.5 to 20
CN(C)C(=O)c1cccc(-c2cc3cc(Cl)ccc3n2S(=O)(=O)c2cc(Br)cc(Cl)c2O)c1 [I-37] | 0.5 to 20
Cc1ccc2c(c1)cc(-c1cncnc1)n2S(=O)(=O)c1cc(F)cc(F)c1O [I-92] | 0.5 to 20
Cc1ccc2c(c1)cc(-c1ccccc1)n2S(=O)(=O)c1cc(Br)cc(Cl)c1O [I-43] | 0.5 to 20

SMILES | IC50 [µM]
O=c1[nH]cncc1-c1cc2cc(Cl)ccc2n1S(=O)(=O)c1cc(F)cc(F)c1O [I-141, 5-(5-chloro-1-((3,5-difluoro-2-hydroxyphenyl)sulfonyl)-1H-indol-2-yl)pyrimidin-4(3H)-one] | 0.5 to 20
CC(=O)Nc1ccc2c(c1)CN(S(=O)(=O)c1cc(Cl)cc(Cl)c1O)CC2 [I-13] | 0.5 to 20
O=C(O)c1ccc2cc(-c3ccccc3)n(S(=O)(=O)c3cc(Br)cc(Cl)c3O)c2c1 [I-67] | 0.5 to 20
COc1ncc(-c2cc3cc(Cl)ccc3n2S(=O)(=O)c2cc(F)cc(F)c2O)cn1 [I-138] | 0.5 to 20
Cc1cc2cc(Cl)ccc2n1S(=O)(=O)c1cc(Cl)c(O)cc1Br [I-149] | 0.5 to 20
O=S(=O)(c1cc(F)cc(F)c1O)n1c(-c2ccccn2)cc2cc(Cl)ccc21 [I-95] | 0.5 to 20
O=S(=O)(c1cc(Cl)cc(Cl)c1O)N1CCOC(COc2ccccc2)C1 (stereo not shown) [I-8] | 0.5 to 20
Cc1cn(S(=O)(=O)c2cc(Br)cc(Cl)c2O)c2ccc(Cl)cc12 [I-147] | 0.5 to 20
O=C(c1cc(Cl)c(O)c(S(=O)(=O)n2c(-c3ccccc3)cc3cc(Cl)ccc32)c1)N1CCC1 [I-52, azetidin-1-yl(3-chloro-5-((5-chloro-2-phenyl-1H-indol-1-yl)sulfonyl)-4-hydroxyphenyl)methanone] | 0.5 to 20
O=S(=O)(c1cc(Br)cc(Cl)c1O)n1c(-c2cc3ccccc3s2)cc2cc(Cl)ccc21 [I-144] | 0.5 to 20
N#Cc1cc(Cl)c(O)c(S(=O)(=O)n2c(-c3ccccc3)cc3cc(Cl)ccc32)c1 [I-78] | 0.5 to 20
O=S(=O)(c1cc(Br)cc(Cl)c1O)n1c(-c2ccc(OC(F)(F)F)nc2)cc2cc(Cl)ccc21 [I-146] | 0.5 to 20
N#Cc1ccc2c(c1)cc(-c1cncnc1)n2S(=O)(=O)c1cc(F)cc(F)c1O [I-97] | 0.5 to 20
O=S(=O)(c1cc(F)cc(F)c1O)n1c(-c2cccnn2)cc2cc(Cl)ccc21 [I-99] | 0.5 to 20
O=S(=O)(c1cc(Br)cc(Cl)c1O)n1c(-c2cnc(C(F)(F)F)nc2)cc2cc(Cl)ccc21 [I-152] | 0.5 to 20
Cc1cc2cc(Cl)ccc2n1S(=O)(=O)c1cc(-c2ccccc2)cc(Cl)c1O [I-142] | 0.5 to 20
Cc1nc(=O)c2cc(Cl)ccc2n1S(=O)(=O)c1cc(Br)cc(Cl)c1O [I-155] | ≥ 20
N#Cc1ccc2c(c1)cc(-c1cnc[nH]1)n2S(=O)(=O)c1cc(F)cc(F)c1O [I-83] | 0.5 to 20
O=C(NO)c1ccc2cc(-c3ccccc3)n(S(=O)(=O)c3cc(Br)cc(Cl)c3O)c2c1 [I-154] | 0.5 to 20
N#Cc1ccc2c(c1)cc(-c1ccccc1)n2S(=O)(=O)c1cc(F)cc(F)c1O [I-77] | 0.5 to 20
O=S(=O)(c1cc(F)cc(F)c1O)n1c(-c2ccc[n+]([O-])c2)cc2cc(Cl)ccc21 [I-98] | 0.5 to 20
O=S(=O)(c1cc(F)cc(F)c1O)n1c(-c2cncs2)cc2cc(F)ccc21 [I-86] | 0.5 to 20
O=S(=O)(c1cc(F)cc(F)c1O)n1c(-c2cnc(C(F)(F)F)nc2)cc2cc(Cl)ccc21 [I-137] | 0.5 to 20
Cc1c(C)n(S(=O)(=O)c2cc(Br)cc(Cl)c2O)c2ccc(Cl)cc12 [I-36] | 0.5 to 20
Cc1ccc(-c2cc3cc(Cl)ccc3n2S(=O)(=O)c2cc(F)cc(F)c2O)nn1 [I-96] | 0.5 to 20

SMILES | IC50 [µM]
O=C(O)c1ccc2cc(-c3ccccc3)n(S(=O)(=O)c3cc(Cl)cc(Br)c3)c2c1 [I-69] | 0.5 to 20
NC(=O)c1cc(Cl)c(O)c(S(=O)(=O)n2c(-c3ccccc3)cc3cc(Cl)ccc32)c1 [I-79] | 0.5 to 20
CCOC(=O)c1cc2cc(Cl)ccc2n1S(=O)(=O)c1cc(Cl)cc(Cl)c1 [I-108] | ≥ 20
O=S(=O)(c1cc(Br)cc(Cl)c1O)n1c(Cc2ccccc2OC(F)(F)F)cc2cc(Cl)ccc21 [I-151] | 0.5 to 20
O=S(=O)(c1cc(Br)cc(Cl)c1O)n1c(C2CC2)cc2cc(Cl)ccc21 [I-41] | 0.5 to 20
O=C(O)c1cc2c(cc1Cl)cc(-c1cncnc1)n2S(=O)(=O)c1cc(Br)cc(Cl)c1O [I-157] | 0.5 to 20
COC(=O)c1ccc2cc(-c3ccccc3)n(S(=O)(=O)c3cc(Br)cc(Cl)c3O)c2c1 [I-70] | 0.5 to 20
Cc1cc2cc(Cl)c(C(=O)O)cc2n1S(=O)(=O)c1cc(Br)cc(Cl)c1O [I-160] | 0.5 to 20
O=S(=O)(c1cc(F)cc(F)c1O)n1c(-c2ccc(OC(F)(F)F)cc2)cc2cc(Cl)ccc21 [I-51] | 0.5 to 20
COc1ccc(Cn2cncc(-c3cc4cc(Cl)ccc4n3S(=O)(=O)c3cc(F)cc(F)c3O)c2=O)cc1 [I-136, 5-(5-chloro-1-((3,5-difluoro-2-hydroxyphenyl)sulfonyl)-1H-indol-2-yl)-3-(4-methoxybenzyl)pyrimidin-4(3H)-one] | 0.5 to 20
CN(C)C(=O)c1ccc2cc(-c3ccccc3)n(S(=O)(=O)c3cc(Br)cc(Cl)c3O)c2c1 [I-80] | 0.5 to 20
Cc1ccccc1-c1cc2cc(Cl)ccc2n1S(=O)(=O)c1cc(Br)cc(Cl)c1O [I-35] | 0.5 to 20
Cc1nccnc1-c1cc2cc(Cl)ccc2n1S(=O)(=O)c1cc(F)cc(F)c1O [I-135] | 0.5 to 20
N#Cc1ccc2c(c1)cc(-c1cccc(F)c1)n2S(=O)(=O)c1cc(F)cc(F)c1O [I-75] | 0.5 to 20
O=S(=O)(c1cc(Cl)cc(Cl)c1O)N1Cc2cnn(-c3ccccc3)c2C1 [I-7] | 0.5 to 20
Cc1cnc(-c2cc3cc(Cl)ccc3n2S(=O)(=O)c2cc(F)cc(F)c2O)cn1 [I-127] | 0.5 to 20
O=S(=O)(c1cccc(F)c1O)n1c(-c2ccccc2)cc2cc(Cl)ccc21 [I-112] | 0.5 to 20
O=C(O)c1ccc2c(c1)cc(-c1ccccc1)n2S(=O)(=O)c1cc(F)cc(F)c1 [I-87] | 0.5 to 20
O=C(c1cc2cc(Cl)ccc2n1S(=O)(=O)c1cc(Cl)cc(Cl)c1O)N1CCCCC1 [I-72] | 0.5 to 20
CC(C)(O)c1cc2cc(Cl)ccc2n1S(=O)(=O)c1cc(Br)cc(Cl)c1O [I-39] | 0.5 to 20
O=S(=O)(c1cc(F)cc(F)c1O)n1c(-c2cnc(O)nc2)cc2cc(Cl)ccc21 [I-140] | 0.5 to 20
O=S(=O)(c1ccccc1O)n1c(-c2ccccc2)cc2cc(Cl)ccc21 [I-106, 2-((5-chloro-2-phenyl-1H-indol-1-yl)sulfonyl)phenol] | ≥ 20
COC(=O)c1ccc2c(c1)cc(-c1ccccc1)n2S(=O)(=O)c1cc(F)cc(F)c1 [I-114] | ≥ 20
